In publication PMC6003700 (European journal of medicinal chemistry, 2018):
Square brackets hold non-standard residues; d marks the D form. Peptide text beside a SMILES is read from it. dPhe(4-CF3) = N[C@H](Cc1ccc(C(F)(F)F)cc1)C(=O)O; Nle = CCCC[C@H](N)C(=O)O

Legend:
hMC1R = hMC1R (Homo sapiens, UniProt Q01726); assay: cAMP accumulation, HEK293 cells expressing hMC1R; assay type: cell-based; settings: hMC1R agonist EC50 versus other melanocortin receptors
MC3R Asp158Ala mutation = settings: MC3R mutant versus wild type; cited from earlier work
[1] = tested on: hMC1R Asp117Ala and Asp121Ala mutants; settings: hMC1R mutants versus wild type; cited from earlier work
[2] = tested on: hMC1R Asp117Ala and Asp121Ala mutants; settings: hMC1R mutants versus wild type; cited from earlier work; remark: listed apart in the source

Chain of hMC1R (Q01726 whole entry): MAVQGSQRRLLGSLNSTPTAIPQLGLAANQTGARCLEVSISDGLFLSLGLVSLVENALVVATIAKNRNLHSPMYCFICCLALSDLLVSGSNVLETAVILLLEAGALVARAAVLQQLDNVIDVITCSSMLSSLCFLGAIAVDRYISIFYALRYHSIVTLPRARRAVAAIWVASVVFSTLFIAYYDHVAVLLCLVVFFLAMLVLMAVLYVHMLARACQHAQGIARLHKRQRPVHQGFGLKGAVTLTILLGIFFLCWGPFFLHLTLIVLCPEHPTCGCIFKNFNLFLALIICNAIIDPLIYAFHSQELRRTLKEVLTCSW

Compound | hMC1R selectivity to other MCR subtypes (hMC1R) | increase for the EC50 value, Asp158Ala mutation (MC3R Asp158Ala mutation) | increase on the IC50 value for the Asp117Ala and Asp121Ala mutants [1] | increase on the EC50 value for the Asp117Ala and Asp121Ala mutants [2]
CCCC[C@H](NC(=O)[C@@H](Cc1ccc(C(F)(F)F)cc1)NC(=O)[C@H](Cc1cnc[nH]1)NC(C)=O)C(=O)N[C@@H](Cc1c[nH]c2ccccc12)C(N)=O [Peptide 5, Ac-His-DPhe(4-CF3)-Nle-Trp-NH2] (Ac-H[dPhe(4-CF3)][Nle]W-NH2) | at least 25 fold | – | – | –
NDP-α-MSH | – | more than 350 fold | around 10 fold | around 10 fold
